Source: patent US9062070B2, “Inhibitors of the renal outer medullary potassium channel” (Merck Sharp & Dohme Corp., priority 2011, dated 2015)

Experiments:
Kir1.1 (ROMK1) = Kir1.1 (ROMK1) (Homo sapiens (Human), UniProt P48048); assay: Electrophysiology Assay (whole cell voltage clamp, IonWorks Quattro); assay type: cell-based; settings: Chinese hamster ovary cells stably expressing Kir1.1; block during voltage step to 0 mV
Protocol: Block of Kir1.1 (ROMK1) currents was examined by whole cell voltage clamp (Hamill et. al. […] Prior to an experiment, Kir1.1 expression was induced by overnight incubation with 1 mM sodium butyrate. […] After centrifugation, the cell pellet was resuspended in approximately 4.0 mL of bath solution and placed in the IonWorks instrument. The intracellular solution consisted of (in mM): 80 K gluconate, 40 KCl, 20 KF, 3.2 MgCl2, 3 EGTA, 5 Hepes, pH 7.4. […] Amphotericin B (Sigma A-4888) was prepared as a 40 mg/mL solution in DMSO. Voltage protocols and current recordings were performed using the IonWorks HT software/hardware system. […] No correction for liquid junction potentials was used. The test pulse, consisting of a 100 ms step to 0 mV from a holding potential of −70 mV, followed by a 100 ms voltage ramp from −70 mV to +70 mV, was applied before and after a 6 min compound incubation period. Test compounds were prepared by diluting DMSO stock solutions into the bath solution at 3× the final concentration and placed in the instrument in 96-well polypropylene plates. Current amplitudes were measured using the IonWorks software. To assess compound potency, the fractional block during the voltage step to 0 mV was calculated in Microsoft Excel (Microsoft, Redmond, Calif.), and dose-response curves were fitted with Igor Pro 4.0 (WaveMetrics, Lake Oswego, Oreg.).

hROMK (hKir1.1) = hROMK (hKir1.1) (Homo sapiens (Human), UniProt P48048); assay: Thallium Flux Assay (ROMK channel functional thallium flux, FLIPR-Tetra); assay type: cell-based; settings: HEK293 cells stably expressing hROMK (hKir1.1)
Chain of hROMK (hKir1.1) (P48048 whole entry): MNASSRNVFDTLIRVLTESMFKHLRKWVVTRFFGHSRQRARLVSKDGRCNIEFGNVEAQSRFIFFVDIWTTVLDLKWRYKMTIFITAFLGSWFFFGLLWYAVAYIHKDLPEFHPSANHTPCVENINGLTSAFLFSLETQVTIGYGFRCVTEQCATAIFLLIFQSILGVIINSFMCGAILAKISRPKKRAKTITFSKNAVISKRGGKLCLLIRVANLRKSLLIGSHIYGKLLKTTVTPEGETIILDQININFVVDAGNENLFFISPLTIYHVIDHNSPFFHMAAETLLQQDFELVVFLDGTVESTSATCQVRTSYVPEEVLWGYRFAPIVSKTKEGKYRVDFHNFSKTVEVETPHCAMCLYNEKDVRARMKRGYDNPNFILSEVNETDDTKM
Protocol: HEK293 cells stably expressing hROMK (hKir1.1) were grown at 37° C. in a 10% CO2 humidified incubator in complete growth media: Dulbecco's Modified Eagle Medium supplemented with non-essential amino acids, Penicillin/Streptomycin/Glutamine, G418 and FBS. At >80% confluency, aspirate the media from the flask and rinse with 10 mL Calcium/Magnesium-free PBS. Add 5 mL of 1× trypsin (prepared in Ca/Mg Free PBS) to T-225 flask and return flask to 37° C./CO2 incubator for 2-3 minutes. To dislodge the cell, gently bang the side of the flask with your hand. Triturate the cells completely and then transfer the cells to 25 mL complete media. Centrifuge at 1,500 rpm for 6 min followed by resuspension in complete growth media and determine cell concentration. For typical re-seeding, 4E6 cells/T-225 flask will attain>80% confluency in 4 days. Under ideal growth conditions and appropriate tissue culture practices, this cell line is stable for 40-45 passages.
• FluxOR™ Reagent (Component A) • FluxOR™ Assay Buffer (Component B)—10× Concentrate • PowerLoad™ Concentrate (Component C)—100× Concentrate • Probenecid (Component D)—Lyophilized sample is kept at −20° C. Water soluble, 100× after solubilization in 1 mL water. Store at 4° C. • FluxOR™ Chloride-free Buffer (Component E)—5× Concentrate • Potassium sulfate (K2SO4) Concentrate (Component F)—125 mM in water. Store at 4° C. • Thallium sulfate (Tl2SO4) Concentrate (Component G)—50 mM in water. Store at 4° C. • DMSO (dimethyl sulfoxide, Component H)—1 mL (100%) Reagent Preparation: FluxOR Working Solutions • 1000× FluxOR™ Reagent: Reconstitute a vial of component A in 100 μl DMSO; Mix well; Store 10 μl aliquots at −20° C. • 1× FluxOR™ Assay Buffer: Dilute Component B 10-fold with water; Adjust pH to 7.4 with Hepes/NaOH; Filter and store at 4° C. • Probenecid/Assay Buffer: 100 mL of 1× FluxOR™ Assay Buffer; 1 mL of reconstituted component D; Store at 4° C. • Loading Buffer (per microplate): 10 μl 1000× FluxOR™ Reagent; 100 μl component C; 10 mL Probenecid/Assay Buffer • Compound Buffer (per microplate): 20 mL Probenecid/Assay Buffer; 0.3 mM ouabain (10 mM ouabain in water can be stored in amber bottle/aluminum foil at room temperature); Test compound • 1× FluxOR™ Chloride-Free Buffer: Prepare 1× working solution in water. Can be stored at room temperature • Stimulant Buffer (prepared at 5× final concentration in 1× FluxOR™ Chloride-Free Buffer): 7.5 mM Thallium sulfate and 0.75 mM Potassium sulfate (to give a final assay concentration of 3 mM Thallium/0.3 mM Potassium). Store at 4° C. when not in use. If kept sterile, this solution is good for months. Assay Protocol—
The ROMK channel functional thallium flux assay is performed in 384 wells, using the FLIPR-Tetra instrument. HEK-hKir1.1 cells are seeded in Poly-D-Lysine microplates and kept in a 37° C.-10% CO2 incubator overnight. On the day of the experiment, the growth media is replaced with the FluxOR™ reagent loading buffer and incubated, protected from light, at ambient temperature (23-25° C.) for 90 min. The loading buffer is replaced with assay buffer±test compound followed by 30 min incubation at ambient temperature, where the Thallium/Potassium stimulant is added to the microplate.
• 1. Seed HEK-hKir1.1 cells (50 μl at 20,000 cells/well) in 384-well PDL coated Microplates • 2. Allow cells to adhere overnight in humidified 37° C./10% CO2 incubator • 3. Completely remove cell growth media from microplate and replace with 25 μl loading buffer • 4. Incubate Microplate at room temperature, protected form light, for 90 min • 5. Remove loading buffer and replace with 25 μl 1× Assay Buffer±test compound. • 6. Incubate microplate at room temperature, protected form light, for 30 min • 7. At FLIPR-Tetra 384: Add stimulant (Thallium/Potassium) solution to microplate and monitor fluorescence. Excitation=400 nm, Emission=460 & 580 nm. Collect data for ˜10 min. Data Calculation—

Chain of Kir1.1 (ROMK1) (P48048 whole entry): as above

SMILES | IC50 (Kir1.1 (ROMK1)) [nM] | IC50 (hROMK (hKir1.1)) [nM]
N#Cc1c(F)ccc([C@@H]2CN3CCN(C(=O)C4CCc5nc(-n6cnnn6)ccc54)C[C@@H]3CO2)c1F (some centres unmarked) [Example 20] | 80 | 230
N#Cc1c(F)ccc([C@H]2CN3CCN(C(=O)C4CCc5nc(-n6cnnn6)ccc54)C[C@@H]3CO2)c1F (some centres unmarked) [Example 21] | 80 | 240
N#Cc1c(F)ccc([C@@H]2CN3CCN(C(=O)C4CCc5cc(-n6cnnn6)ncc54)C[C@H]3CO2)c1F (some centres unmarked) [Example 22] | 40 | 160
N#Cc1c(F)ccc([C@H]2CN3CCN(C(=O)C4CCc5cc(-n6cnnn6)ncc54)C[C@@H]3CO2)c1F (some centres unmarked) [Example 23] | 150 | 540
N#Cc1c(F)ccc([C@@H]2CN3CCN(C(=O)C4CCc5cc(-n6cnnn6)ncc54)C[C@@H]3CO2)c1F (some centres unmarked) [Example 24] | 200 | 110
N#Cc1c(F)ccc([C@H]2CN3CCN(C(=O)C4CCc5cc(-n6cnnn6)ncc54)C[C@H]3CO2)c1F (some centres unmarked) [Example 25] | 60 | 100
N#Cc1c(F)ccc([C@@H]2CN3CCN(C(=O)C4CCc5nc(-n6cnnn6)ccc54)C[C@H]3CO2)c1Cl (some centres unmarked) [Example 26] | 110 | 220
N#Cc1c(F)ccc([C@@H]2CN3CCN(C(=O)C4CCc5nc(-n6cnnn6)ccc54)C[C@H]3CO2)c1Cl (some centres unmarked) [Example 27] | 120 | 230
N#Cc1c(F)ccc([C@H]2CN3CCN(C(=O)C4CCc5nc(-n6cnnn6)ccc54)C[C@H]3CO2)c1Cl (some centres unmarked) [Example 28] | 120 | 220
N#Cc1c(F)ccc([C@H]2CN3CCN(C(=O)C4CCc5nc(-n6cnnn6)ccc54)C[C@H]3CO2)c1Cl (some centres unmarked) [Example 29] | 140 | 450
N#Cc1c(F)ccc([C@H]2CN3CCN(C(=O)C4CCc5nc(-n6cnnn6)ccc54)C[C@@H]3CO2)c1Cl (some centres unmarked) [Example 30] | 190 | 290
N#Cc1c(F)ccc([C@@H]2CN3CCN(C(=O)C4CCc5cc(-n6cnnn6)ncc54)C[C@H]3CO2)c1Cl (some centres unmarked) [Example 31] | 80 | 110
N#Cc1c(F)ccc([C@H]2CN3CCN(C(=O)C4CCc5cc(-n6cnnn6)ncc54)C[C@H]3CO2)c1Cl (some centres unmarked) [Example 32] | 70 | 130
Cc1c([C@H]2CN3CCN(C(=O)C4CCc5nc(-n6cnnn6)ccc54)C[C@@H]3CO2)ccc(F)c1C#N (some centres unmarked) [Example 34] | 160 | 120
Cc1c([C@H]2CN3CCN(C(=O)C4CCc5cc(-n6cnnn6)ncc54)C[C@H]3CO2)ccc(F)c1C#N (some centres unmarked) [Example 36] | 140 | 660
Cc1c([C@@H]2CN3CCN(C(=O)C4CCc5cc(-n6cnnn6)cnc54)C[C@H]3CO2)ccc(F)c1C#N (some centres unmarked) [Example 37] | 240 | 810
Cc1c([C@@H]2CN3CCN(C(=O)C4CCc5cc(-n6cnnn6)cnc54)C[C@H]3CO2)ccc(F)c1C#N (some centres unmarked) [Example 38] | 280 | 900

SMILES | IC50 (Kir1.1 (ROMK1)) [nM] | IC50 (hROMK (hKir1.1)) [nM]
Cc1c([C@H]2CN3CCN(C(=O)C4CCc5cc(-n6cnnn6)cnc54)C[C@@H]3CO2)ccc(F)c1C#N (some centres unmarked) [Example 39] | 390 | 600
Cc1c([C@H]2CN3CCN(C(=O)C4CCc5cc(-n6cnnn6)ncc54)C[C@@H]3CO2)ccc(F)c1C#N (some centres unmarked) [Example 40] | 120 | 270
Cc1c([C@H]2CN3CCN(C(=O)C4CCc5cc(-n6cnnn6)ncc54)C[C@@H]3CO2)ccc(F)c1C#N (some centres unmarked) [Example 41] | 110 | 720
Cc1c([C@@H]2CN3CCN(C(=O)C4CCc5cc(-n6cnnn6)ncc54)C[C@@H]3CO2)ccc(F)c1C#N (some centres unmarked) [Example 42] | 130 | 350
Cc1c([C@@H]2CN3CCN(C(=O)C4CCc5cc(-n6cnnn6)ncc54)C[C@@H]3CO2)ccc(F)c1C#N (some centres unmarked) [Example 43] | 130 | 850
Cc1c([C@@H]2CN3CCN(C(=O)C4CCc5cc(-n6cnnn6)ncc54)C[C@H]3CO2)ccc(F)c1C#N (some centres unmarked) [Example 44] | 170 | 170
O=C1OCCc2cc([C@@H]3CN4CCN(C(=O)C5CCc6cc(-n7cnnn7)ncc65)C[C@H]4CO3)ccc21 (some centres unmarked) [Example 45] | 220 | 600
COc1cc([C@H]2CN3CCN(C(=O)C4CCc5nc(-n6cnnn6)ccc54)C[C@H]3CO2)ccc1C#N (some centres unmarked) [Example 51] | 190 | 580
COc1c([C@@H]2CN3CCN(C(=O)C4CCc5cc(-n6cnnn6)ncc54)C[C@H]3CO2)ccc(F)c1C#N (some centres unmarked) [Example 52] | 220 | 420
COc1cc([C@@H]2CN3CCN(C(=O)C4CCc5nc(-n6cnnn6)ccc54)C[C@@H]3CO2)ccc1C#N (some centres unmarked) [Example 63] | 270 | 740
N#Cc1c(F)ccc([C@@H]2CN3CCN(C(=O)C4CCc5nc(-n6cnnn6)ccc54)C[C@@H]3CO2)c1Cl (some centres unmarked) [Example 64] | 100 | 120
N#Cc1c(F)ccc([C@@H]2CN3CCN(C(=O)C4CCc5nc(-n6cnnn6)ccc54)C[C@@H]3CO2)c1Cl (some centres unmarked) [Example 65] | 140 | 340
N#Cc1cc([C@@H]2CN3CCN(C(=O)C4CCc5cc(-n6cnnn6)ncc54)C[C@H]3CO2)c(F)cc1F (some centres unmarked) [Example 68] | 200 | 200
COc1c([C@@H]2CN3CCN(C(=O)C4CCc5cc(-n6cnnn6)ncc54)C[C@H]3CO2)ccc(C#N)c1F (some centres unmarked) [Example 70] | 100 | 500
COc1ccc([C@H]2CN3CCN(C(=O)C4CCc5cc(-n6cnnn6)ncc54)C[C@@H]3CO2)c(C)c1C#N (some centres unmarked) [Example 74] | 280 | 500
Cc1c([C@@H]2CN3CCN(C(=O)C4Cc5cnc(-n6cnnn6)nc5C4)C[C@@H]3CO2)ccc(F)c1C#N (some centres unmarked) [Example 75] | 150 | 250
Cc1c([C@H]2CN3CCN(C(=O)C4Cc5cnc(-n6cnnn6)nc5C4)C[C@H]3CO2)ccc(F)c1C#N (some centres unmarked) [Example 76] | 130 | 460
